# Data: patent US20090196864A1 (priority 2005, published 2009)
# Like-named read-outs stand apart in the source and are kept apart here. Where a SMILES comes first, the peptide text is derived from it. The star is where a group is joined. Cbz = O=C(OCc1ccccc1)*; CH2F = FC*
# Key:
# S5 cells [1] = type: cell-based, Trichoplusia ni
# S5 cells [2] = conditions: Zhang et al. 2005, cited from earlier work; for Effect of chelator on toxin-induced death: S5 cells pre-treated with chelator, then Cry1Ab toxin
# S5 cells [3] = type: cell-based, Trichoplusia ni; remark: listed apart in the source
# S5 cells [4] = conditions: Zhang et al. 2005, cited from earlier work; for Effect of osmotic protectant on blebbing and swelling of toxin-exposed cells: 30 mM protectant
# H5 cells [5] = type: cell-based, Trichoplusia ni
# H5 cells [6] = conditions: cultured H5 cells without receptor; Zhang et al. 2005; cited from earlier work
# S5 cells [7] = type: cell-based, Trichoplusia ni; remark: listed apart in the source
# S5 cells [8] = conditions: either stage of cytotoxicity; shown previously; cited from earlier work
compound,measurement,setting,value
CO/C1=C\C(C)=C\[C@@H](C)[C@@H](O)[C@@H](C)C/C(C)=C/C=C/[C@H](OC)[C@@H]([C@@H](C)[C@@H](O)[C@H](C)[C@@]2(O)C[C@@H](O)[C@H](C)[C@@H](C(C)C)O2)OC1=O [Bafilomycin A],Cell death,S5 cells [1],+ (key: + = 80 ± 5% cell death; − = no cell death)
C=C1[C@@H](C)[C@H]2[C@H](Cc3ccccc3)NC(=O)[C@]23[C@H](OC(C)=O)/C=C/[C@@](C)(O)C(=O)[C@@H](C)C/C=C/[C@H]3[C@@H]1O [Cytochalasin D],Cell death,S5 cells [1],+ (key: + = 80 ± 5% cell death; − = no cell death)
O=C(O)CN(CCN(CC(=O)O)CC(=O)O)CC(=O)O [EDTA],Cell death,S5 cells [1],− (key: + = 80 ± 5% cell death; − = no cell death)
same,Effect on Cry1Ab-induced toxicity and cell death,S5 cells [1],prevented completely
same,Effect of chelator on toxin-induced death,S5 cells [2],completely abolished toxin-induced death
same,Effect on Cry1Ab-induced cAMP levels,S5 cells [3],virtually precluded any increase in cAMP levels
same,Effect on FSK induction of cAMP,S5 cells [3],precluded FSK induction of cAMP
O=C(O)CN(CCOCCOCCN(CC(=O)O)CC(=O)O)CC(=O)O [EGTA],Cell death,S5 cells [1],+ (key: + = 80 ± 5% cell death; − = no cell death)
same,Effect of chelator on toxin-induced death,S5 cells [2],fully susceptible
CC(C)Cn1c(=O)n(C)c(=O)c2[nH]cnc21 [IBMX],Level of cAMP,S5 cells [3],did not cause any elevation
O=C(Nc1cccc(C(=O)Nc2ccc(S(=O)(=O)O)c3cc(S(=O)(=O)O)cc(S(=O)(=O)O)c23)c1)Nc1cccc(C(=O)Nc2ccc(S(=O)(=O)O)c3cc(S(=O)(=O)O)cc(S(=O)(=O)O)c23)c1 [NF023],Effect on Cry1Ab toxicity,S5 cells [1],did not have any effect
O=C(Nc1cc(C(=O)Nc2ccc(S(=O)(=O)O)cc2S(=O)(=O)O)cc(C(=O)Nc2ccc(S(=O)(=O)O)cc2S(=O)(=O)O)c1)Nc1cc(C(=O)Nc2ccc(S(=O)(=O)O)cc2S(=O)(=O)O)cc(C(=O)Nc2ccc(S(=O)(=O)O)cc2S(=O)(=O)O)c1 [NF449],Decrease of relative toxicity (cell death) mediated by Cry1Ab,S5 cells [1],50%
COC(=O)Nc1nc2ccc(C(=O)c3cccs3)cc2[nH]1 [Nocodazole],Cell death,"S5 cells [1]; S5 cells treated with inhibitor, switched to inhibitor-free buffer before Cry1Ab toxin treatment, percent of dead cells by Trypan blue staining",+ (+ = 80 ± 5% cell death)
Cl.NCCc1ccc(S(=O)(=O)F)cc1 [Pefabloc],Cell death,S5 cells [1],+ (key: + = 80 ± 5% cell death; − = no cell death)
same,Effect on Cry1Ab-induced toxicity and cell death,S5 cells [1],had no effect
"OC[C@H]1O[C@@](CO)(O[C@H]2O[C@H](CO)[C@@H](O)[C@H](O)[C@H]2O)[C@@H](O)[C@@H]1O [Sucrose, sucrose]",Effect of osmotic protectant on blebbing and swelling of toxin-exposed cells,S5 cells [4],partially prevented cell swelling
Cc1ccc(S(=O)(=O)N[C@@H](Cc2ccccc2)C(=O)CCl)cc1 [TPCK],Cell death,S5 cells [1],+ (key: + = 80 ± 5% cell death; − = no cell death)
same,Effect on Cry1Ab-induced toxicity and cell death,S5 cells [1],had no effect
COC(=O)C[C@H](NC(=O)[C@H](C)NC(=O)[C@@H](NC(=O)OCc1ccccc1)C(C)C)C(=O)CF [Z-VAD-fmk] (Cbz-Val-Ala-Asp(OMe)-CH2F),Cell death,S5 cells [1],+ (key: + = 80 ± 5% cell death; − = no cell death)
same,Effect on Cry1Ab-induced toxicity and cell death,S5 cells [1],did not suppress
"C[C@H]1O[C@@H](n2cnc3c(N)ncnc32)C[C@@H]1OP(=O)(O)OP(=O)(O)O [ddADP, 2′,5′-dideoxy-3′-ADP]",Reduction of number of cells undergoing cell death,S5 cells [1],50%
Nc1ncnc2c1nc(Sc1ccc(Cl)cc1)n2[C@@H]1O[C@@H]2COP(=O)(O)O[C@H]2[C@H]1O [pCPT-cAMP],Cell death with Cry1Ab after pre-treatment,S5 cells [1],~100%
same,Cell death without Cry1Ab treatment,S5 cells [1],Neither FSK nor pCPT-cAMP alone was sufficient to bring about cell death
OC[C@H]1O[C@H](OC[C@H]2O[C@H](O[C@]3(CO)O[C@H](CO)[C@@H](O)[C@@H]3O)[C@H](O)[C@@H](O)[C@@H]2O)[C@H](O)[C@@H](O)[C@H]1O [raffinose],Fate of protectant-treated S5 cells after Cry1Ab exposure,S5 cells [2]; raffinose-treated cells,eventually died
same,Effect of osmotic protectant on blebbing and swelling of toxin-exposed cells,S5 cells [4],arrested in the blebbing stage and did not swell
Cry1Ab toxin,cAMP levels,H5 cells [5],did not change
same,Effect of toxin on cells,H5 cells [6],not affected
same,Externalization of phosphatidylserine or DNA fragmentation,S5 cells [7],no externalization of phosphatidylserine or DNA fragmentation was observed
same,cAMP production,S5 cells [3],increased in a time-dependent manner
same,Time to cell swelling and lysis,S5 cells [4]; S5 cells,≤ 40 min
same,Time to membrane blebbing after toxin exposure,S5 cells [4]; S5 cells,≤ 20 min
same,Internalization of toxin,S5 cells [8],not internalized
